Source: a melting point compilation (Tetko et al.; mined from patent text by program, amines drawn as free bases though some values may be those of a salt)

| Structure (SMILES) | melting point [°C] |
| --- | --- |
| COc1cc2cc(C#N)sc2cc1OC | 125 |
| CCCc1c(OC)n2c3c(=O)n(C)c(=O)n(C)c3nc2n(Cc2ccccc2)c1=O | 199 to 201 |
| COc1ncc(F)c2nc(S(=O)(=O)Nc3c(F)cc(Cl)cc3F)nn12 | 203 to 204 |
| O=C(NCCO)c1cccc(-c2ccc3c(c2)C(Oc2ccc(Cl)cc2Cl)CC3)c1 (stereo not given) | 155 to 156 |
| CC(C)(C)OC(=O)N1CCn2c(C#N)c(-c3cccc(F)c3)c(C(=O)O)c2C1 | > 210 |
| C=C1C[C@@H](C(=O)O)[C@H](C(=O)O)C1 (relative stereo) | 178 to 179 |
| C[C@H](O)[C@H](Cc1ccccc1)C(=O)NN | 167 |
| COc1cccc(-c2ccc3c(c2)NC(=O)OC3(C)C)c1 | 167 to 168 |
| CCNC1=CC(=O)c2c(OC)ccc(OC)c2C1=O | 172 to 173 |
| N#CC(=NNc1ccc(C(=O)O)cc1)C(N)=C(C#N)C#N | > 300 |
| CC(=O)NC[C@H]1CN(c2ccc(N3CCC(=O)N(C)CC3)c(F)c2)C(=O)O1 | 203 to 204 |
| CCNC(=O)N1N=C(c2ccc([N+](=O)[O-])cc2)c2cc(Cl)ccc2CC1C (stereo not given) | 170 to 172 |
| CCNC=C(C(=O)C=Cc1ccc(N(C)C)c(C)c1)C(=O)OC | 98 to 100 |
| C[Si](C)(C)c1ccc(-c2ccc(I)cc2F)c(F)c1F | 76 |
| c1ccc2c(c1)CCSO2 | 119 to 120 |
| O=C(c1ccc(-c2ccn(C(=O)Cc3ccc(Cl)cc3Cl)n2)cc1)N1Cc2cccn2Cc2ccccc21 | 130 to 140 |
| CS(=O)(=O)c1ccc(-c2cnn(CC(F)(F)F)c(=O)c2N2CCCCC2)cc1 | 160 to 161 |
| CCOC(=O)c1cnn2c(-c3cccc(C(F)(F)F)c3)ccnc12 | 97 to 99 |
| O=C(O)c1cc(Br)cnc1Cl | 174 to 177 |
| CC(C)(C)C(NC(=O)Cc1ccc(Cl)cc1)NC(Cc1cccc2ncccc12)=NC#N (stereo not given) | 186 to 188 |
| CN1Cc2ccccc2CC1c1ccc(C(C)(C)C)cc1 (stereo not given) | 53 to 54.5 |
| COC(=O)c1c(C)[nH]c(-c2ncncc2Cl)c1C(=O)OC | 180 to 181 |
| COC(=O)c1ccc(COc2ccc3cc(-c4csc(-c5ccccc5)n4)ccc3c2Br)cc1 | 173 to 175 |
| Cc1ccc(N2CCN(Cc3n[nH]c4ccccc34)CC2)nc1 | 151 to 153 |
| N#Cc1ccc(-c2ccc(C(=O)O)s2)cc1 | > 300 |

| Structure (SMILES) | melting point [°C] |
| --- | --- |
| CCCOC(=O)Oc1ccc(-c2nc3c(N)nc(N)nc3nc2N)cc1 | 302 to 308 |
| CCC(=O)NCC=C1CCc2ccc3nc(CCCCc4ccccc4)oc3c21 | 111 to 113 |
| O=C(O)c1cccc(S(=O)(=O)Oc2ccc(-c3ccc(-c4c(Cc5ccccc5)oc5ccccc45)cc3)cc2)c1 | 169 to 171 |
| CCc1coc2c(Cc3ccc(C(C)C)cc3)c(C)cc(C)c12 | 62 to 64 |
| O=C(COc1ccccc1)COc1ccccc1 | 55 to 57 |
| COCc1cccc(-c2nn(C(C)c3oc4ccccc4c(=O)c3-c3cccc(F)c3)c3ncnc(N)c23)c1 (stereo not given) | 167 to 170 |
| O=C(O)CCC(CC=Cc1ccccc1)(C(=O)C=Cc1ccc(Cl)cc1)c1ccccc1 (stereo not given) | 135 to 140 |
| Cn1cnc([N+](=O)[O-])c1NCCN1CCC(Nc2nc3cccnc3n2Cc2ccc(F)cc2)CC1 | 199 |
| CN(C(=O)CNc1cc(-c2ccccc2)nc(-c2ccc(C(F)(F)F)cc2)n1)C1CC1 | 179 to 180 |
| CCOC1Nc2c(ccc(OC)c2OC(C)=O)C(=O)N2CCCC12 (stereo not given) | 143 to 146 |
| CCCC(C)(C)c1cc(N2CCC(C)C2=O)no1 (stereo not given) | 30 to 31 |
| CCC(C)NC(C(=O)NCCCC(c1ccc(F)cc1)c1ccc(F)cc1)C(C)C (stereo not given) | 77 to 81 |
| CCOC(=O)CC=NCC(O)COc1ccccc1C#N (stereo not given) | 120 |
| O=S(=O)(Nc1cnc(-n2cnnn2)nc1NCc1ccccc1)c1ccc(Br)cc1 | 184 |
| O=C1c2ccccc2S(=O)(=O)N1CBr | 155 to 157 |
| CCCn1c(=O)[nH]c2ccc(C(=O)c3ncc4ccc(C(=O)O)cn34)cc2c1=O | 384 |
| Cc1ccc(O[C@H]2CCN(C(=O)OCc3ccccc3)C[C@H]2O)cc1C (relative stereo) | 140 to 143 |
| COC1(OCCc2nc(C(C)C)c(Sc3cc(Cl)cc(Cl)c3)n2C)CCCCCCC1 | 54 to 56 |
| CCc1cc2ccccc2c(=O)o1 | 69 |
| COc1ncccc1C(=O)NC1CN(C)CCn2c1nc(-c1ccncn1)cc2=O (racemic) | 228 to 230 |
| COCCOCc1nn(C)c2c1N=C(c1ccc(-n3c(C)nc4cnccc43)cc1)CC(=O)N2C | 142 to 144 |
| CSc1nc(NCCC(C)C)c2ccnc-2[nH]1 | 157 to 158 |
| COc1ccc(-c2cc(COc3cccc4cc(NS(=O)(=O)C(F)(F)F)ccc34)ccc2F)cc1 | 132 to 133 |
| Cc1c(-c2ccc(OC3CCCC3)cc2)[nH]c2ccc(OCc3ccccc3)cc12 | 161 to 167 |
| Cc1nnc2ccc(-c3ccc([N+](=O)[O-])c(C(F)(F)F)c3)nn12 | 293 to 295 |

| Structure (SMILES) | melting point [°C] |
| --- | --- |
| Cc1cnnc2ccccc12 | 70 to 72 |
| CC(C)CC(CS)C(=O)NCCCCCCCC(=O)N[C@@H](CCCNC(=N)N)C(=O)O (stereo not given in full) | 102 to 130 |
| O=C(OCCO)c1ccc([N+](=O)[O-])cc1 | 77 to 78 |
| CCC(C)(C(=O)c1ccc(N2CCOCC2)cc1)N1CCOCC1 (stereo not given) | 111 to 114 |
| CCCCCCCc1cnc(-c2ccc(OC(=O)c3cc(N)c(O[C@H](C)CCCCCC)cc3[N+](=O)[O-])cc2)nc1 | 105 |
| CCOc1ccc(C2=NN(C3CCN(C(C)=O)CC3)C(=O)[C@@H]3CC=CC[C@H]23)cc1OCC | 148 to 150 |
| C=C(C)Oc1nc(NCCSCc2ccco2)ncc1Cc1ccc(C)nc1 | 47 to 48 |
| O=C(NCc1ccccc1)NNC(=O)c1ccc(Cl)cc1 | 244 to 246 |
| N#Cc1cnn2c(C(F)(F)F)cc(-c3ccc(F)cc3)nc12 | 198 |
| COc1ccc(NC(=O)CCc2ccc(-c3c(C)sc4nc(=NS(=O)(=O)c5ccc(C)cc5)sn34)cc2)cc1OC | 203 to 204 |
| CCCCCCCCCCCCn1nnc(CC(=O)O)n1 | 70 to 73 |
| COC(=O)C1=C(C)NC(=S)N(C(=O)OC(C)C)C1c1cccc([N+](=O)[O-])c1 (stereo not given) | 157 to 158 |
| COc1ccccc1-n1cnc2c(C(N)=O)nc(-c3ccccc3O)nc21 | 278 to 280 |
| O=c1oc2ccccc2c(O)c1CCCOc1ccccc1 | 125 to 126 |
| O=S1(=O)NCN(C2CCCCCCC2)c2cc(Cl)c(Cl)cc21 | 154 to 155 |
| CC(=O)c1c[nH]c(CO)n1 | 147 to 148 |
| O=C(Nc1cccc2ncccc12)C(Cl)(Cl)Cl | 145 to 147 |
| Fc1cc2c(Cl)ncnc2cn1 | 75 to 76 |
| Cc1ccc(S(=O)(=O)OCCC2Cc3ccccc3O2)cc1 (stereo not given) | 51 to 54 |
| CC(C)(C)c1cc(I)c2c(c1)CNC1(O2)C2CC3CC(C2)CC1C3 (stereo not given) | 162 to 164 |
| CSc1cccc2c1CC(=O)N2 | 198 |
| CCOC(=O)c1cn(CC)c2nc3ccccc3n2c1=O | 252 to 253 |
| Cc1oc(-c2ccccc2)nc1COc1ccc(COc2nn(Cc3ccc(OCc4nc(-c5ccccc5)oc4C)cc3)cc2C=O)cc1 | 155 to 156 |
| COC(=O)CCCCC(=O)Nc1ccc2c3c(n(CCCNC(=O)OC(C)(C)C)c(=O)c2c1)-c1ccccc1C3=O | 143 to 145 |
| CCCC[C@H](NC(=O)[C@H](CC(C)C)NC(=O)C1CCN(C(C)=O)CC1)C(=O)CSCc1ccco1 | 110 to 112 |

| Structure (SMILES) | melting point [°C] |
| --- | --- |
| CCCC(=O)NCCc1c[nH]c2cc(Cl)c(OC)cc12 | 98 to 98.5 |
| CC1(C)CC(O)CC(C)(C)N1N=Nc1ccc([N+](=O)[O-])cc1 | 108 to 110 |
| CCCc1nn(-c2ccc(C(F)(F)F)cn2)cc1CCCCOc1ccc(CCC(=O)O)c(C)c1 | 105 to 107 |
| CCCc1c(OCC(O)COc2cccc(NC(=O)C(=O)OCC)c2C#N)ccc(C(C)=O)c1O (stereo not given) | 172 to 174 |
| CC=Cc1cc(-c2ccc(F)cc2)cc(C(=O)O)c1O | 196 to 200 |
| O=C(CCCN1CCCC1=O)Nc1ncccc1C(=O)c1cccs1 | 143 to 145 |
| CC(=O)OCC(=O)C1(OC(C)=O)CCC2C3CCC4=CC(=O)C=CC4(C)C3C(O)CC21C (stereo not given) | 99.5 |
| C=CCn1c(SC(Cl)=C(Cl)C#N)nnc1C(F)(F)F | 45 to 48 |
| Cc1c(C(=O)O)c[nH]c1C(=O)c1ccccc1 | 241 to 243 |
| COC(=O)N(CC(=O)O)C(=O)c1c(Br)ccc2c(C(F)(F)F)c(OC)ccc12 | 164 to 166 |
| CCOC(=O)C1=CNC2=C(C(=S)Nc3ccccc3)CCC(C)N2C1=O (stereo not given) | 173 to 175 |
| CC(=O)Nc1c(C(=O)c2ccc(OC(F)(F)F)cc2)[nH]c2cc(Cl)ccc12 | 213 to 214 |
| COc1cc2ccc(-c3ccccc3)cc2cc1SC | 124 to 125 |
| CN(c1ccccc1[N+](=O)[O-])S(C)(=O)=O | 144 to 145 |
| O=C(CCl)NCC(CNC(=O)CCl)OC1CCCCO1 (stereo not given) | 100 |
| CCS(=O)(=O)N(c1cc(-c2ncnc(C(F)(F)F)c2Cl)c(F)cc1C#N)S(=O)(=O)CC | 191 to 194 |
| Cc1nc(-c2cccc(Cl)c2)n(-c2ccc(S(N)(=O)=O)cc2)n1 | 146 to 147 |
| COC(=O)OC(Cc1ccc(OCCc2nc(-c3ccccc3)oc2C)cc1)C(N)=O (stereo not given) | 171 to 174 |
| Cc1cccc(C(C)(C)O)c1N | 78 to 79 |
| NCc1cc(Cl)ccc1O | 160 to 162 |
| COc1cc2ccc(C(=O)CCCCBr)cc2cc1OC | 93 to 95 |
| CC(=O)NCc1ccc(CN2CCN(c3ncc([N+](=O)[O-])s3)CC2)cc1 | 151 to 152 |
| CCOC(=O)c1c(C=O)c2c(Cl)cc(Cl)cc2n1C(=O)OC(C)(C)C | 141 |
| Cc1[nH]nc(Oc2c(Cl)cc(C(F)(F)F)cc2Cl)c1C | 220 to 223 |
| COC(=O)c1cn(-c2ccc(F)cc2)c(C=Cc2cccnc2)cc1=O | 201 to 204 |
